In brackets after ≈: the same amount, converted by molar mass. Entries after “also recorded” stand apart in the source; their conditions may differ.
How the values were obtained:
cells = conditions: literature statement; cited from earlier work
HSV-1 [1] = experiment: Crystal violet assay, anti-viral activity against HSV-1 in Vero cells; type: cell-based, Herpes simplex type 1 virus
Experimental: A wild-type HSV-1 obtained from ESR, Upper Hutt, was cultured in Vero (African Green Monkey kidney) tissue culture cells. HSV-1 virus was added to confluent Vero cell monolayers and allowed to infect until >70% cytopathic effect was observed. The infected cultures were then frozen and thawed three times and centrifuged at 3000 rpm for 15 minutes. The supernatant was stored at −80° C. until use.
(§1) The crystal violet assay depends on the ability of adherent cell lines such as Vero to stick to the bottom of tissue culture plates. Damaged or dead cells lose their ability to adhere and are removed during a washing process. Viable cells remaining are stained with crystal violet, which is then released from the cells and measured in a spectrophotometer.
(§2) Vero cells were seeded at 3×10^5 cells/ml overnight at 37° C. in 96-well tissue culture plates. When cells had reached confluency, 50 μl of the growth media was removed and replaced with 25 μl of virus and 25 μl of test product. Controls were the same as those used in the xCelligence assay. The assay was terminated after 96 hours which is the length of time taken to see CPE in the control wells.

[2] = test system: Vero cells and HaCaT cells; experiment: Cytotoxicity to the cells used in the in vitro anti-viral testing (crystal violet assay); type: cell-based, African Green Monkey; conditions: at the concentrations tested in the anti-viral assay
Experimental: as §1, §2
In this test, it was confirmed that polygodial is not cytotoxic at the concentrations tested because where strong anti-viral activity is present, the cells are alive and uninfected by the virus.

HSV-1 [3] = experiment: Crystal violet assay, anti-viral activity against HSV-1 in HaCaT cells; type: cell-based, Herpes simplex type 1 virus
Experimental: The crystal violet assay depends on the ability of adherent cell lines such as Vero to stick to the bottom of tissue culture plates. Damaged or dead cells lose their ability to adhere and are removed during a washing process. Viable cells remaining are stained with crystal violet, which is then released from the cells and measured in a spectrophotometer. Vero cells were seeded at 3×10^5 cells/ml overnight at 37° C. in 96-well tissue culture plates. When cells had reached confluency, 50 μl of the growth media was removed and replaced with 25 μl of virus and 25 μl of test product. Controls were the same as those used in the xCelligence assay. The assay was terminated after 96 hours which is the length of time taken to see CPE in the control wells. In the first test (results shown in FIGS. 2A and B), the HSV-1 anti-viral activity of pure polygodial was assessed in comparison to Acyclovir in both Vero cells (FIG. 2A) and HaCaT cells (FIG. 2B).

[4] = 4 μl/ml Acyclovir, virus only control infection rate about 75%

CC1(C)CCC[C@@]2(C)[C@H]1CC=C(C=O)[C@]2(O)C=O [warburganal]
cytotoxicity (cells): particularly cytotoxic

CC1(C)CCC[C@]2(C)[C@@H](C=O)C(C=O)=CC[C@@H]12 [polygodial]
MIC (HSV-1 [1]; Human alphaherpesvirus 1, calculated, HSV-1, cell line not distinguished (Vero and HaCaT)): 600 to 1200 mg/L (≈ 2.56 to 5.12 mM) | concentration at which anti-viral effect was comparative to 4 μl/ml Acyclovir (HSV-1 [1]; Vero cells): 0.15 mg/mL | cytotoxicity [2]: not cytotoxic; also recorded: low cytotoxicity | concentration at which anti-viral effect was comparative to 4 μl/ml Acyclovir (HSV-1 [3]; HaCaT cells): 0.3125 mg/mL

Nc1nc2c(ncn2COCCO)c(=O)[nH]1 [Acyclovir, reference compound]
uninfected cells, Acyclovir control, first test (FIGS. 2A and B) (HSV-1 [1]; 4 μl/ml Acyclovir, Vero and HaCaT not distinguished, virus only control infection rate about 80%): 80% | uninfected Vero cells, Acyclovir control, second test (FIG. 3A) (HSV-1 [1]; [4]): 60% | uninfected HaCaT cells, Acyclovir control, second test (FIG. 3B) (HSV-1 [3]; [4]): 75%

Reference: patent US10045952B2, “Anti-Viral Compound and Composition” (Forest Herbs Research Limited, priority 2013, dated 2018)
